Tests used:
[1] = target: cotton aphid vesicle-fusing ATPase (Aphis gossypii, UniProt A0A9P0IYS6); assay: Inhibition of cotton aphid vesicle-fusing ATPase activity (Kinase-Glo luminescent assay of ATP not hydrolyzed); type: biochemical; conditions: for IC50: 8 concentrations from 100 μM to 0.03 μM, calculated with XLfit, read-out: Activity of inhibiting vesicle-fusing ATPase activity (IC50)
Description: Selection of a compound which modulates a vesicle-fusing ATPase activity was performed in a system for measuring and evaluating the vesicle-fusing ATPase activity, the activity being modulated by adding a test compound to an in vitro reaction system using the cotton aphid vesicle-fusing ATPase prepared in Example 7.
As for a measurement of the cotton aphid vesicle-fusing ATPase activity, after the enzymatic reaction of vesicle-fusing ATPase using ATP as a substrate, an amount of ATP that was not hydrolyzed was measured as the amount of luminescence of luciferase using Kinase-Glo™ Luminescent Kinase Assay (manufactured by Promega), according to a method described in the instruction attached to the kit. The vesicle-fusing ATPase activity was calculated from the amount of luminescence.
For measuring the activity, the activity of the aphid vesicle-fusing ATPase was measured when a test compound dissolved in DMSO was contained to a final concentration of 10 μM. In addition, the activity of the aphid vesicle-fusing ATPase was measured when DMSO was contained in place of a test compound. Then, a ratio (%) of a measured value of the activity of the aphid vesicle-fusing ATPase when a test compound dissolved in DMSO was contained, relative to a measured value of the activity of aphid vesicle-fusing ATPase when DMSO was contained in place of the test compound was calculated, and a value obtained by subtracting the calculated value from 100% was adopted as an inhibition degree (%). The results in each test compound are shown in Table 4 in Example 9 together with results of Example 9.
The activity of aphid vesicle-fusing ATPase was measured when a test compound dissolved in DMSO was contained to a final concentration of each concentration of 100 μM, 30 μM, 10 μM, 3 μM, 1 μM, 0.3 μM, 0.1 μM or 0.03 μM. IC50 (μM) was calculated from the result of each concentration at each test compound using a concentration-dependent test analyzing software XL fit (manufactured by idbs). The results are shown in Table 5 in Example 10 together with results of Example 9.

Aphis gossypii = assay: Pesticidal activity test, cotton aphid reared on artificial feed containing test compound; type: in vivo; conditions: same manner as Example 9: 50 ppm in artificial feed, 6 days, controlling value of 30% or more = pesticidal activity
vesicle-fusing ATPase = conditions: ATPase inhibitor; Steel et al. 1999, Morgan et al. 1994; cited from earlier work
[2] = test compound in DMSO at final concentration 10 μM, relative to DMSO control

Chain of cotton aphid vesicle-fusing ATPase (A0A9P0IYS6 1-478): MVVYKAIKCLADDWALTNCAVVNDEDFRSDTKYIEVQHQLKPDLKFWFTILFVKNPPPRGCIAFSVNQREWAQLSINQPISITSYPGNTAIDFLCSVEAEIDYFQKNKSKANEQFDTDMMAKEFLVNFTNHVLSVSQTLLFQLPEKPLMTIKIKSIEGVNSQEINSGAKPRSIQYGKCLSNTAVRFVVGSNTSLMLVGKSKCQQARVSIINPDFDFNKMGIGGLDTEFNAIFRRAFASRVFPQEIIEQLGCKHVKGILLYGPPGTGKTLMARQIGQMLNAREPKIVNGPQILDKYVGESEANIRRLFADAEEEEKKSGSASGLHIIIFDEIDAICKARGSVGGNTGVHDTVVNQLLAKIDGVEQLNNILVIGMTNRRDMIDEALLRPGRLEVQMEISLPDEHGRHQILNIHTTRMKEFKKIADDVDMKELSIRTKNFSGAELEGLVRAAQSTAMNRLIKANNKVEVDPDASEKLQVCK

Compound | IC50 [1] [µM] | Determination result of pesticidal activity (Result of Example 10) (Aphis gossypii) | Activity of inhibiting vesicle-fusing ATPase activity (inhibition degree (%) at 10 μm addition) [1, 2] [%] | Activity against vesicle-fusing ATPase (vesicle-fusing ATPase) | inhibition at 10 µM ([1]; test compound in DMSO at final concentration 10 μM, relative to DMSO control, read-out: Activity of inhibiting vesicle-fusing ATPase activity (inhibition degree (%) at 10 μm addition)) [%]
Cc1ccc2c(c1)C(=O)C1(O)CCN(c3ccccc3)C1=N2 (racemic) [(±)-Blebbistatin] | > 100 | Absence of |  |  | 
Clc1ccc(C(c2ccc(Cl)cc2)n2cc[n+](CC(OCc3ccc(Cl)cc3Cl)c3ccc(Cl)cc3Cl)c2)cc1 (centres unmarked) [Calmidazolium Chloride] | 4.7 |  | 80 |  | 
CCN1C(=O)C=CC1=O [N-ethylmaleimide] |  |  |  | show also activity against vesicle-fusing ATPase | 
CCCCCCCCCCCCC(=O)N1CCCCC1CNC(=O)[C@@H](N)CCCCN.Cl.Cl (some centres unmarked) [NPC15437 dihydrochloride] | 19 |  | 35 |  | 
Cc1ccc(C(=O)Nc2ccc(S(=O)(=O)O)c3cc(S(=O)(=O)O)cc(S(=O)(=O)O)c23)cc1NC(=O)c1cccc(NC(=O)Nc2cccc(C(=O)Nc3cc(C(=O)Nc4ccc(S(=O)(=O)O)c5cc(S(=O)(=O)O)cc(S(=O)(=O)O)c45)ccc3C)c2)c1 [Suramin] | 1.9 |  |  |  | 100
Hypocrellin B | > 100 | Absence of |  |  | 

From US20110207775A1, “AGENT THAT MODULATES PHYSIOLOGICAL CONDITION OF PESTS, INVOLVED IN INSECT VESICLE-FUSING ATPASE ACTIVITY” (SUMITOMO CHEMICAL COMPANY, LIMITED, priority 2006, published 2011)
